From PubChem BioAssay AID2060498 (Molecular Pharmacology Branch, DTP, NCI, 2025)
pIC50: −log10 of the molar value.

Tested on: 171881-019-R-J1-PDC tumor spheroids, viability
Test: Anticancer human tumor 171881-019-R-J1-PDC patient-derived invasive breast carcinoma cell line growth inhibition [GQUAD]
Details: spheroids with HUVEC and MSC; for pIC50: curve of first compound; for viability, T/C: stronger effect = lower value
Outline: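 Multi-cell-type spheroids of tumor cells with HUVEC and mesenchymal stem cells, treated with drug combinations. Concentrations descend in half-log steps from near clinical Cmax, or from 10 microM where Cmax is unknown; viability read-out.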

[1] = second compound 0.0316 µM, first compound 0.0316 µM
[2] = second compound 0.0316 µM, first compound 0.1 µM
[3] = second compound 0.0316 µM, first compound 0.316 µM
[4] = second compound 0.0316 µM, first compound 1 µM
[5] = second compound 0.0316 µM, first compound 3.16 µM
[6] = second compound 0.0316 µM, first compound 10 µM
[7] = second compound 0.1 µM, first compound 0.0316 µM
[8] = second compound 0.1 µM, first compound 0.1 µM
[9] = second compound 0.1 µM, first compound 0.316 µM
[10] = second compound 0.1 µM, first compound 1 µM
[11] = second compound 0.1 µM, first compound 3.16 µM
[12] = second compound 0.1 µM, first compound 10 µM
[13] = second compound 0.316 µM, first compound 0.0316 µM
[14] = second compound 0.316 µM, first compound 0.1 µM
[15] = second compound 0.316 µM, first compound 0.316 µM
[16] = second compound 0.316 µM, first compound 1 µM
[17] = second compound 0.316 µM, first compound 3.16 µM
[18] = second compound 0.316 µM, first compound 10 µM
[19] = second compound 1 µM, first compound 0.0316 µM
[20] = second compound 1 µM, first compound 0.1 µM
[21] = second compound 1 µM, first compound 0.316 µM
[22] = second compound 1 µM, first compound 1 µM
[23] = second compound 1 µM, first compound 3.16 µM
[24] = second compound 1 µM, first compound 10 µM
[25] = second compound 3.16 µM, first compound 0.0316 µM
[26] = second compound 3.16 µM, first compound 0.1 µM
[27] = second compound 3.16 µM, first compound 0.316 µM
[28] = second compound 3.16 µM, first compound 1 µM
[29] = second compound 3.16 µM, first compound 3.16 µM
[30] = second compound 3.16 µM, first compound 10 µM
[31] = second compound 10 µM, first compound 0.0316 µM
[32] = second compound 10 µM, first compound 0.1 µM
[33] = second compound 10 µM, first compound 0.316 µM
[34] = second compound 10 µM, first compound 1 µM
[35] = second compound 10 µM, first compound 3.16 µM
[36] = second compound 10 µM, first compound 10 µM
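Further: spheroids exposed to compounds for 7 days.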
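Wherever viability, T/C is given: 100% = DMSO vehicle control viability.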

C=CCn1c(=O)c2cnc(Nc3ccc(N4CCN(C)CC4)cc3)nc2n1-c1cccc(C(C)(C)O)n1 + Cc1[nH]c2ccc(F)cc2c1-c1nc2c3cccnc3c3ncccc3c2[nH]1
pIC50 (second compound 0.0316 µM): 6.20 | pIC50 (second compound 0.1 µM): 6.23 | pIC50 (second compound 0.316 µM): 6.43 | pIC50 (second compound 1 µM): 6.88 | pIC50 (second compound 3.16 µM): > 7.50 | pIC50 (second compound 10 µM): > 7.50 | viability, T/C [1]: 91.2% | viability, T/C [2]: 94% | viability, T/C [3]: 77% | viability, T/C [4]: 31.3% | viability, T/C [5]: 21.4% | viability, T/C [6]: 23.4% | viability, T/C [7]: 103% | viability, T/C [8]: 86% | viability, T/C [9]: 68.1% | viability, T/C [10]: 36.7% | viability, T/C [11]: 20.5% | viability, T/C [12]: 23.2% | viability, T/C [13]: 78.3% | viability, T/C [14]: 65.4% | viability, T/C [15]: 56% | viability, T/C [16]: 28.1% | viability, T/C [17]: 23.1% | viability, T/C [18]: 25% | viability, T/C [19]: 68.1% | viability, T/C [20]: 51.4% | viability, T/C [21]: 42.5% | viability, T/C [22]: 25.5% | viability, T/C [23]: 23.4% | viability, T/C [24]: 21.3% | viability, T/C [25]: 11.4% | viability, T/C [26]: 5.61% | viability, T/C [27]: 5.52% | viability, T/C [28]: 4.19% | viability, T/C [29]: 5.08% | viability, T/C [30]: 4.35% | viability, T/C [31]: 43.9% | viability, T/C [32]: 30.7% | viability, T/C [33]: 23.1% | viability, T/C [34]: 17.5% | viability, T/C [35]: 15.7% | viability, T/C [36]: 13.6%

COc1ncnc(C2CC2)c1-c1ncc2cnn(Cc3ccc(-c4nc(C(F)(F)F)cn4C(C)C)cc3)c2n1 + Cc1[nH]c2ccc(F)cc2c1-c1nc2c3cccnc3c3ncccc3c2[nH]1
pIC50 (second compound 0.0316 µM): < 5.00 | pIC50 (second compound 0.1 µM): < 5.00 | pIC50 (second compound 0.316 µM): < 5.00 | pIC50 (second compound 1 µM): < 5.00 | pIC50 (second compound 3.16 µM): > 7.50 | pIC50 (second compound 10 µM): > 7.50 | viability, T/C [1]: 88.4% | viability, T/C [2]: 93.6% | viability, T/C [3]: 97.8% | viability, T/C [4]: 104% | viability, T/C [5]: 90.5% | viability, T/C [6]: 88.4% | viability, T/C [7]: 97.5% | viability, T/C [8]: 87.9% | viability, T/C [9]: 99.1% | viability, T/C [10]: 98.8% | viability, T/C [11]: 83.1% | viability, T/C [12]: 81.8% | viability, T/C [13]: 71.4% | viability, T/C [14]: 74.2% | viability, T/C [15]: 75.4% | viability, T/C [16]: 72% | viability, T/C [17]: 72.3% | viability, T/C [18]: 62.7% | viability, T/C [19]: 65.1% | viability, T/C [20]: 54.2% | viability, T/C [21]: 59.4% | viability, T/C [22]: 60.3% | viability, T/C [23]: 71.1% | viability, T/C [24]: 60.3% | viability, T/C [25]: 8.81% | viability, T/C [26]: 4.91% | viability, T/C [27]: 7.33% | viability, T/C [28]: 8.01% | viability, T/C [29]: 11.8% | viability, T/C [30]: 6.52% | viability, T/C [31]: 40.8% | viability, T/C [32]: 38.5% | viability, T/C [33]: 30.7% | viability, T/C [34]: 50% | viability, T/C [35]: 42.6% | viability, T/C [36]: 35.2%

CC1COCCN1c1cc(C2(S(C)(=N)=O)CC2)nc(-c2ccnc3[nH]ccc23)n1 (stereo not drawn) + Cc1cnc(CNC(=O)c2c(=O)c3ccc(N4CCCN(C)CC4)nc3n3c2sc2ccccc23)cn1
pIC50 (second compound 0.0316 µM): 5.98 | pIC50 (second compound 0.1 µM): 5.98 | pIC50 (second compound 0.316 µM): 6.12 | pIC50 (second compound 1 µM): 5.95 | pIC50 (second compound 3.16 µM): 5.98 | pIC50 (second compound 10 µM): 5.95 | viability, T/C [1]: 93.8% | viability, T/C [2]: 82.8% | viability, T/C [3]: 90.7% | viability, T/C [4]: 50.8% | viability, T/C [5]: 15.5% | viability, T/C [6]: 9.59% | viability, T/C [7]: 87.5% | viability, T/C [8]: 87.8% | viability, T/C [9]: 74.1% | viability, T/C [10]: 53.9% | viability, T/C [11]: 18.7% | viability, T/C [12]: 10.7% | viability, T/C [13]: 74.9% | viability, T/C [14]: 80.5% | viability, T/C [15]: 63.5% | viability, T/C [16]: 45.7% | viability, T/C [17]: 21.7% | viability, T/C [18]: 11.2% | viability, T/C [19]: 67.6% | viability, T/C [20]: 61.5% | viability, T/C [21]: 68.7% | viability, T/C [22]: 50.3% | viability, T/C [23]: 28.7% | viability, T/C [24]: 13.6% | viability, T/C [25]: 61.9% | viability, T/C [26]: 56.9% | viability, T/C [27]: 58.7% | viability, T/C [28]: 50.3% | viability, T/C [29]: 35.1% | viability, T/C [30]: 17.1% | viability, T/C [31]: 57.5% | viability, T/C [32]: 64.1% | viability, T/C [33]: 57.2% | viability, T/C [34]: 51.9% | viability, T/C [35]: 33% | viability, T/C [36]: 16.2%

COc1ccc([C@@H](O)c2cc(-c3ncnc4cc(N5CCOCC5)ccc34)c(F)cc2Cl)nn1 + Cc1cnc(CNC(=O)c2c(=O)c3ccc(N4CCCN(C)CC4)nc3n3c2sc2ccccc23)cn1
pIC50 (second compound 0.0316 µM): 6.39 | pIC50 (second compound 0.1 µM): 6.57 | pIC50 (second compound 0.316 µM): 6.77 | pIC50 (second compound 1 µM): 6.77 | pIC50 (second compound 3.16 µM): 6.95 | pIC50 (second compound 10 µM): 6.99 | viability, T/C [1]: 93.2% | viability, T/C [2]: 77.1% | viability, T/C [3]: 60.5% | viability, T/C [4]: 22.4% | viability, T/C [5]: 9.13% | viability, T/C [6]: 5.12% | viability, T/C [7]: 75.6% | viability, T/C [8]: 76% | viability, T/C [9]: 43.7% | viability, T/C [10]: 19.1% | viability, T/C [11]: 8.81% | viability, T/C [12]: 4.57% | viability, T/C [13]: 73.1% | viability, T/C [14]: 58% | viability, T/C [15]: 40.5% | viability, T/C [16]: 17% | viability, T/C [17]: 9.34% | viability, T/C [18]: 6.36% | viability, T/C [19]: 64.9% | viability, T/C [20]: 56.8% | viability, T/C [21]: 41.8% | viability, T/C [22]: 18% | viability, T/C [23]: 10.8% | viability, T/C [24]: 4.62% | viability, T/C [25]: 60.7% | viability, T/C [26]: 49.4% | viability, T/C [27]: 39.4% | viability, T/C [28]: 18.9% | viability, T/C [29]: 11.2% | viability, T/C [30]: 4.88% | viability, T/C [31]: 53.8% | viability, T/C [32]: 52.3% | viability, T/C [33]: 37.8% | viability, T/C [34]: 21.7% | viability, T/C [35]: 11.8% | viability, T/C [36]: 4.99%
